According to PubChem BioAssay AID256 (DTP/NCI, 2004):
Toxic doses and inconclusive results are not listed.

Test system: CD2F1 mice, L1210 leukemia ip, survival T/C
Test: NCI In Vivo Anticancer Drug Screen. Data for tumor model L1210 Leukemia (intraperitoneal) in CD2F1 (CDF1) mice
Settings: higher = longer survival
Procedure, shortened: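 Transplantable tumor in mice; compound-treated vs vehicle-treated groups. Read-out = treated/control ratio of the measured endpoint.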

[1] = endpoint: mean survival time, dose: 100.0 mg/kg/injection, schedule: Q04DX003 (ip), vehicle: saline with Tween-80
[2] = endpoint: mean survival time, dose: 200.0 mg/kg/injection, schedule: Q04DX003 (ip), vehicle: saline with Tween-80
[3] = endpoint: mean survival time, dose: 400.0 mg/kg/injection, schedule: Q04DX003 (ip), vehicle: saline with Tween-80

O=[N+]([O-])C1(Br)C(c2ccccc2)C=CC(c2ccccc2)C1c1ccccc1 (configuration not stated)
T/C [1]: 95 % of control | T/C [2]: 95 % of control | T/C [3]: 91 % of control

Cc1nc(/N=C(\N)Nc2ccc(Cl)c(Cl)c2)[nH]c(=O)c1Cc1ccccc1
T/C [1]: 95 % of control | T/C [2]: 88 % of control | T/C [3]: 102 % of control

CCOC(=O)c1nc2cc(C)c(C)cc2[nH]c1=O
T/C (endpoint: mean survival time, dose: 100.0 mg/kg/injection, schedule: Q01DX009 (ip), vehicle: saline with Tween-80): 95 % of control | T/C (endpoint: mean survival time, dose: 200.0 mg/kg/injection, schedule: Q01DX009 (ip), vehicle: saline with Tween-80): 89 % of control | T/C (endpoint: mean survival time, dose: 400.0 mg/kg/injection, schedule: Q01DX009 (ip), vehicle: saline with Tween-80): 100 % of control

CC(C)(C)C=O
T/C (endpoint: mean survival time, dose: 100.0 mg/kg/injection, schedule: Q01DX009 (ip), vehicle: saline): 95 % of control | T/C (endpoint: mean survival time, dose: 200.0 mg/kg/injection, schedule: Q01DX009 (ip), vehicle: saline): 102 % of control | T/C (endpoint: mean survival time, dose: 400.0 mg/kg/injection, schedule: Q01DX009 (ip), vehicle: saline): 96 % of control

C[CH2][Sn]1([CH2]C)[O]CC2OC(n3cc(C)c(=O)[nH]c3=O)CC2[O]1 (configuration not stated)
T/C (endpoint: mean survival time, dose: 0.78 mg/kg/injection, schedule: Q01DX005 (ip), vehicle: other): 94 % of control | T/C (endpoint: mean survival time, dose: 1.56 mg/kg/injection, schedule: Q01DX005 (ip), vehicle: other): 104 % of control | T/C (endpoint: mean survival time, dose: 3.13 mg/kg/injection, schedule: Q01DX005 (ip), vehicle: other): 110 % of control | T/C (endpoint: mean survival time, dose: 6.25 mg/kg/injection, schedule: Q01DX005 (ip), vehicle: other): 107 % of control

O=c1[nH]c(=O)n(C2CC(O)C(CO)O2)cc1C(F)(F)F (configuration not stated)
T/C (endpoint: mean survival time, dose: 16.0 mg/kg/injection, schedule: Q01DX009 (ip), vehicle: water): 152 % of control | T/C (endpoint: mean survival time, dose: 16.0 mg/kg/injection, schedule: Q03HX016 (ip), vehicle: water): 123 % of control | T/C (endpoint: mean survival time, dose: 16.0 mg/kg/injection, schedule: Q03HX024 (ip), vehicle: water): 171 % of control | T/C (endpoint: mean survival time, dose: 64.0 mg/kg/injection, schedule: Q01DX009 (ip), vehicle: water): 152 % of control | T/C (endpoint: mean survival time, dose: 64.0 mg/kg/injection, schedule: Q04DX003 (ip), vehicle: water): 118 % of control | T/C (endpoint: mean survival time, dose: 128.0 mg/kg/injection, schedule: Q03HX016 (ip), vehicle: water): 157 % of control | T/C (endpoint: mean survival time, dose: 128.0 mg/kg/injection, schedule: Q03HX024 (ip), vehicle: water): 109 % of control | T/C (endpoint: mean survival time, dose: 128.0 mg/kg/injection, schedule: Q04DX003 (ip), vehicle: water): 112 % of control | T/C (endpoint: mean survival time, dose: 128.0 mg/kg/injection, schedule: Q08DX002 (ip), vehicle: water): 100 % of control | T/C (endpoint: mean survival time, dose: 256.0 mg/kg/injection, schedule: Q01DX001 (ip), vehicle: water): 108 % of control | T/C (endpoint: mean survival time, dose: 256.0 mg/kg/injection, schedule: Q01DX009 (ip), vehicle: water): 112 % of control | T/C (endpoint: mean survival time, dose: 256.0 mg/kg/injection, schedule: Q03HX008 (ip), vehicle: water): 152 % of control | T/C (endpoint: mean survival time, dose: 256.0 mg/kg/injection, schedule: Q03HX016 (ip), vehicle: water): 163 % of control | T/C (endpoint: mean survival time, dose: 256.0 mg/kg/injection, schedule: Q04DX003 (ip), vehicle: water): 118 % of control | T/C (endpoint: mean survival time, dose: 256.0 mg/kg/injection, schedule: Q08DX002 (ip), vehicle: water): 109 % of control | T/C (endpoint: mean survival time, dose: 512.0 mg/kg/injection, schedule: Q01DX001 (ip), vehicle: water): 114 % of control | T/C (endpoint: mean survival time, dose: 512.0 mg/kg/injection, schedule: Q03HX008 (ip), vehicle: water): 153 % of control | T/C (endpoint: mean survival time, dose: 512.0 mg/kg/injection, schedule: Q08DX002 (ip), vehicle: water): 112 % of control | T/C (endpoint: mean survival time, dose: 1024.0 mg/kg/injection, schedule: Q08DX002 (ip), vehicle: water): 114 % of control | T/C (endpoint: mean survival time, dose: 2048.0 mg/kg/injection, schedule: Q01DX001 (ip), vehicle: water): 121 % of control | T/C (endpoint: mean survival time, dose: 2048.0 mg/kg/injection, schedule: Q08DX002 (ip), vehicle: water): 124 % of control

CC(=O)/C(=C\c1ccc(/C=C(\C(C)=O)C(=O)CCN(C)C)cc1)C(=O)CCN(C)C
T/C (endpoint: median survival time, dose: 25.0 mg/kg/injection, schedule: Q01DX005 (ip), vehicle: saline with Tween-80): 102 % of control | T/C (endpoint: median survival time, dose: 50.0 mg/kg/injection, schedule: Q01DX005 (ip), vehicle: saline with Tween-80): 102 % of control | T/C (endpoint: median survival time, dose: 100.0 mg/kg/injection, schedule: Q01DX005 (ip), vehicle: saline with Tween-80): 101 % of control | T/C (endpoint: median survival time, dose: 200.0 mg/kg/injection, schedule: Q01DX005 (ip), vehicle: saline with Tween-80): 98 % of control | T/C (endpoint: median survival time, dose: 400.0 mg/kg/injection, schedule: Q01DX005 (ip), vehicle: saline with Tween-80): 102 % of control
